Source: BindingDB's records for PubMed 8632757 (Merck Sharp & Dohme Research Laboratories, 1996)

How the values were obtained:
[1] = target: T1, Gamma-aminobutyric acid receptor subunit alpha-1 (Homo sapiens, UniProt P14867)
T1 sequence (P14867 whole entry): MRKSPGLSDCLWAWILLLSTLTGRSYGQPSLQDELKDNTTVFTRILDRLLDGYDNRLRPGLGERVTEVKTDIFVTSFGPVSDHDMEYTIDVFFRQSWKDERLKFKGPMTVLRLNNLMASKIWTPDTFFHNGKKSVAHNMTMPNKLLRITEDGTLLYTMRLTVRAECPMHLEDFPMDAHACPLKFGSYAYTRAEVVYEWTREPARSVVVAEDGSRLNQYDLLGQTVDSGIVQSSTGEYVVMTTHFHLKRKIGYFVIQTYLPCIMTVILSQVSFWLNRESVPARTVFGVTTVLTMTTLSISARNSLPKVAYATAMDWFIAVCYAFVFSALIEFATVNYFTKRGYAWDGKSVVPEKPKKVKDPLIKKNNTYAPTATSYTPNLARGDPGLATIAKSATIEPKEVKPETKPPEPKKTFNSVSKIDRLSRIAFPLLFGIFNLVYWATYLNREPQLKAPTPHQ

[2] = target: Gamma-aminobutyric acid receptor subunit alpha-6 (Homo sapiens, UniProt Q16445)
Gamma-aminobutyric acid receptor subunit alpha-6, sequence (Q16445 whole entry): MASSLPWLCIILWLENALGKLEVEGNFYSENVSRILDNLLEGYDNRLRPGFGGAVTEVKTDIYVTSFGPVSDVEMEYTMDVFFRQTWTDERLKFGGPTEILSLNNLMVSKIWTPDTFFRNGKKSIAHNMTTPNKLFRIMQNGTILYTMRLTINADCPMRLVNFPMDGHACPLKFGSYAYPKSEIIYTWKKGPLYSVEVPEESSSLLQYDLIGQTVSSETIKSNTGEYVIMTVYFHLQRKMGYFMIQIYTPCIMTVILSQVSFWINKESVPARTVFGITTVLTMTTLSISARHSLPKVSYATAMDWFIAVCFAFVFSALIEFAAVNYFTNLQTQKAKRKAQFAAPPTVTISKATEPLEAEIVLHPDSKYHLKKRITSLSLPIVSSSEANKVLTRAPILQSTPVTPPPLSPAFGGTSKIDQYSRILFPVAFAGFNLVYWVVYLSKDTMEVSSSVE

Work on `COC(=O)c1cc2c(cn1)[nH]c1ccccc12` yielded a Ki [1] of 0.001 µM and a Ki [2] of 2.05 µM.

Work on `CN1C(=O)CN=C(c2ccccc2)c2cc(Cl)ccc21` yielded a Ki [2] greater than 10 µM.

`Cc1ccc(-c2nc3ccc(C)cn3c2CC(=O)N(C)C)cc1` [Ambien] was tested, and the Ki [2] was greater than 10 µM.

Work on `CC(C)(C)OC(=O)c1ncn2c1C1CCCN1C(=O)c1c(Br)cccc1-2` (stereo not drawn) [8-Bromo-7-oxo-3b,4,5,6-tetrahydro-7H-2,6a,11b-triaza-benzo[g]cyclopenta[e]azulene-3-carboxylic acid tert-butyl ester] yielded a Ki [2] of 0.0127 µM.

For `CCc1c(C(=O)OC)ncc2[nH]c3cc(OC)c(OC)cc3c12` [NSC_104999], the Ki [1] was 0.0112 µM and the Ki [2] was 0.134 µM.

`Cc1nnc2ccc(-c3cccc(C(F)(F)F)c3)nn12` showed a Ki [1] of 0.0895 µM and a Ki [2] greater than 10 µM.

Compound `CCOC(=O)c1ncn2c1CN(C)C(=O)c1cc(N=[N+]=[N-])ccc1-2` [RO-154513] has a Ki [1] of 0.0026 µM.

Work on `Cc1nnc2n1-c1ccc(Cl)cc1C(c1ccccc1Cl)=NC2` [Halcion] yielded a Ki [2] greater than 10 µM.

Work on `CC(C)c1nc(-c2ncn3c2CN(C)C(=O)c2c(Cl)cccc2-3)no1` [FG 8205] yielded a Ki [1] of 0.00068 µM and a Ki [2] of 0.227 µM.
